Assay results as given in ChEMBL document CHEMBL3352747, “Novel heterocyclic scaffolds of GW4064 as farnesoid X receptor agonists” (Bioorg Med Chem Lett, 2015).

Key:
Bile acid receptor [1] = molecular target: T1, Bile acid receptor (Homo sapiens, UniProt Q96RI1); assay: Agonist activity at FXR (unknown origin) assessed as ligand-mediated interaction of the SRC1 peptide with protein LBD by FRET assay
T1 sequence (Q96RI1 whole entry): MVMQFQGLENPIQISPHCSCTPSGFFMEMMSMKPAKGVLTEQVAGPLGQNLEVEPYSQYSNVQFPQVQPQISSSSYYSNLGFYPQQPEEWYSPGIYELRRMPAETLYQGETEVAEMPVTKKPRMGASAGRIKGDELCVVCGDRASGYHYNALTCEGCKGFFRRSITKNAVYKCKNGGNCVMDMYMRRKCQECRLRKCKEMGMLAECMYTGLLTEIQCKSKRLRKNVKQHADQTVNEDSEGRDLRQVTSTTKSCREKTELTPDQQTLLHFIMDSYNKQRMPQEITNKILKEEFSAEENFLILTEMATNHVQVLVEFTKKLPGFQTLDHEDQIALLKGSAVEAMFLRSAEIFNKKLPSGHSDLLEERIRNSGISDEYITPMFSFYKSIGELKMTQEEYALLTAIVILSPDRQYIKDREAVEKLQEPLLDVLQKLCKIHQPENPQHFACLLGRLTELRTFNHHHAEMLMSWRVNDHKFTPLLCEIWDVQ

[2] = molecular target: T2, Bile acid receptor (Homo sapiens) (UniProt Q96RI1); assay: Agonist activity at FXR (unknown origin) transfected into african green monkey CV1 cells assessed as ligand-mediated transcription by luciferase reporter/ transient transfection assay relative to GW4064; format: cell-based; settings: CV-1
T2 sequence (whole entry): T1 sequence (Q96RI1 whole entry)

[3] = molecular target: T2, Bile acid receptor (Homo sapiens); assay: Agonist activity at FXR (unknown origin) assessed as ligand-mediated interaction of the SRC1 peptide with protein LBD by FRET assay relative to GW4064
Bile acid receptor [4] = molecular target: T1, Bile acid receptor; assay: Agonist activity at FXR (unknown origin) transfected into african green monkey CV1 cells assessed as ligand-mediated transcription by luciferase reporter/ transient transfection assay; format: cell-based, CV-1

CC(C)c1cnn(-c2c(Cl)cccc2Cl)c1COc1ccc(/C=C/c2cccc(C(=O)O)c2)c(Cl)c1
EC50 (Bile acid receptor [1]): 42 nM | Emax [2]: 100% | Emax [3]: 105% | EC50 (Bile acid receptor [4]): 20 nM

CC(C)c1oc(=O)n(CCc2c(Cl)cccc2Cl)c1COc1ccc(/C=C/c2cccc(C(=O)O)c2)c(Cl)c1
EC50 (Bile acid receptor [1]): 66 nM | Emax [2]: 82% | Emax [3]: 99% | EC50 (Bile acid receptor [4]): 35 nM

CC(C)c1nnn(-c2c(Cl)cccc2Cl)c1COc1ccc(/C=C/c2cccc(C(=O)O)c2)c(Cl)c1
EC50 (Bile acid receptor [1]): 112 nM | Emax [2]: 125% | Emax [3]: 106% | EC50 (Bile acid receptor [4]): 35 nM

CC(C)c1oc(=O)n(Cc2c(Cl)cccc2Cl)c1COc1ccc(/C=C/c2cccc(C(=O)O)c2)c(Cl)c1
EC50 (Bile acid receptor [1]): 110 nM | Emax [2]: 104% | Emax [3]: 90% | EC50 (Bile acid receptor [4]): 54 nM

CC(C)c1ncn(CCc2c(Cl)cccc2Cl)c1COc1ccc(/C=C/c2cccc(C(=O)O)c2)c(Cl)c1
EC50 (Bile acid receptor [1]): 617 nM | Emax [2]: 35% | Emax [3]: 49% | EC50 (Bile acid receptor [4]): 676 nM

CC(C)c1occ(COc2c(Cl)cccc2Cl)c1COc1ccc(/C=C/c2cccc(C(=O)O)c2)c(Cl)c1
EC50 (Bile acid receptor [1]): 1230 nM | Emax [3]: 51% | EC50 (Bile acid receptor [4]; cv-1): < 10000 nM

CC(C)n1nnc(-c2c(Cl)cccc2Cl)c1COc1ccc(/C=C/c2cccc(C(=O)O)c2)c(Cl)c1
EC50 (Bile acid receptor [1]): 123 nM | Emax [2]: 47% | Emax [3]: 80% | EC50 (Bile acid receptor [4]): 145 nM

CC(C)n1cnc(COc2c(Cl)cccc2Cl)c1COc1ccc(/C=C/c2cccc(C(=O)O)c2)c(Cl)c1
EC50 (Bile acid receptor [1]): 309 nM | Emax [2]: 62% | Emax [3]: 88% | EC50 (Bile acid receptor [4]): 562 nM
